Consider three compounds from patent publication US9145472B2, “Charge reversible polymers” (Wyoming Research Products Center, priority 2006, dated 2015).

A short description of series [1]: pH-dependent hydrolysis of model amides monitored by 1H-NMR. In kind it is physicochemical. The protocol:
Model compound synthesis and hydrolytic kinetics measurement (Scheme 4—FIG. 4): Briefly, N,N-diethylamine (415 μL, 4 mmol) and 1,2-cis-cyclohexanedicarboxylic anhydride (617 mg, 4 mmol) were dissolved in 10 mL dichloride methane. The reaction was kept at room temperature for 2 h with stirring. The solvent was then removed by rotary evaporation to obtain the raw product. The raw product was purified by recrystallizing from benzene to get 2-[(diethylamino)carbonyl]cyclohexanecarboxylic acid. 1H NMR (400 MHz, CDCl3): δ (ppm): 3.60-3.22 (m), 2.77 (m), 2.51-2.45 (m), 1.87-1.66 (m), 1.58-1.46 (m), 1.49-1.39 (m), 1.28 (q), 1.17 (t). Similarly, 2-[(isopropylamino)carbonyl]cyclohexanecarboxylic acid was synthesized. 1H NMR (400 MHz, CDCl3): δ (ppm): 3.83 (q), 2.73 (q), 2.64 (q), 1.87 (m), 1.79 (m), 1.64 (m), 1.45 (m), 1.33 (m), 1.01 (d).
The hydrolysis of the model compounds was monitored by 1H-NMR. Briefly, 2-[(isopropylamino)carbonyl]cyclohexanecarboxylic acid (10 mg) was dissolved in 2 mL D2O. Sodium carbonate was used to adjust the solution pH to 5.0, 6.0 or 7.4 at 37° C. At predesigned time intervals, 1HNMR spectra of the solution were measured on a Bruker Avance DRX-400 spectrometer. The hydrolysis was monitored by measuring the integrations of the peaks at 3.77-3.9 ppm (CH in the amide of propan-2-amine) and the 3.3-3.5 ppm (CH in the propan-2-amine).
The hydrolysis of model amides of primary and secondary amines made from cis-1,2-cyclohexanedicarboxylic anhydride was tested at different pH values.

The subject of another series is nuclear DNA. The note with it: cited from earlier work.

With `CC(C)NC(=O)C1CCCCC1C(=O)O` (stereo not shown) [amide of the primary amine, 2-[(isopropylamino)carbonyl]cyclohexanecarboxylic acid], the “hydrolysis of the amide” value is given as “hydrolyzed more slowly” in series [1] (pH 5, 37° C.); “hydrolyzed more slowly” in series [1] (pH 6, 37° C.); “did not hydrolyze” in series [1] (pH 7.4).
Take `N.N.[Cl][Pt][Cl]` [cisplatin]: in the series with nuclear DNA, the “molecules that enter the cell that actually bind the nuclear DNA” value is reported as “less than 1%”.
Consider `CCN(CC)C(=O)C1CCCCC1C(=O)O` (stereo not shown) [amide of the secondary amine, 2-[(diethylamino)carbonyl]cyclohexanecarboxylic acid], for which the “hydrolysis of the amide” value was “almost instantly hydrolyzed” in series [1] (pH 5, 37° C.) and “slightly slower” in series [1] (pH 6, 37° C.). In series [1] (pH 7.4, after 60 h), the “extent of amide hydrolysis” value came to 50%.
